Columns and labels:
CXCR3 [1] = biological target: T1, CXCR3 (Mus musculus, UniProt O88410); test: PET/CT imaging, baseline and self-blocking, in ApoE KO mice on high-fat diet; format: in vivo
T1 construct: tissue Jackson Laboratory (mice); host or cells: In vivo: atherosclerotic abdominal aorta and brown adipose tissue of ApoE KO mice (high-fat diet) and C57BL/6 control mice (normal diet)
T1 sequence (O88410 1-367): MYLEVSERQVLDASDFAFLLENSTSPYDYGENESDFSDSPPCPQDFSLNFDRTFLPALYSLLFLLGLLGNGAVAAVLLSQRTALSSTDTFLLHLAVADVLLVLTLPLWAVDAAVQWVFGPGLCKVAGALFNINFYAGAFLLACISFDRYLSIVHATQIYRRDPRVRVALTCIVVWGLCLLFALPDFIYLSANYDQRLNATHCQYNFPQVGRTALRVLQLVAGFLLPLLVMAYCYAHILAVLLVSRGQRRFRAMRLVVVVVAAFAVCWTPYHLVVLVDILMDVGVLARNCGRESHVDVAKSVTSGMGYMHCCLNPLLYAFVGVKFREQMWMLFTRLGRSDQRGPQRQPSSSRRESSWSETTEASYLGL
Source text: (§1) [^18F]1 was further evaluated for reliability as a CXCR3 radiotracer using mouse models of atherosclerosis. For this purpose, we tested [^18F]1 in ApoE KO mice, a widely used murine model of atherosclerosis. Six-week-old ApoE KO male mice (N = 6) and C57BL/6 male control mice (i.e., a background strain of ApoE KO mouse, ApoE-wildtype control; N = 6) were purchased from Jackson Laboratory (Bar Harbor, ME). The ApoE KO mice were placed on a high-fat diet over 12 weeks to accelerate atherosclerosis development. […] At 12 weeks, PET/computed tomography (CT) studies were performed using both mice groups. Dynamic PET scans (90 min acquisition) were performed beginning 5 min after the intravenous injection of [^18F]1 followed by a ~ 10 min CT scan. Usually, one week after the baseline PET/CT scan, the corresponding blocking PET/CT scan was performed. This time, 1·HCl salt (5 mg/kg) was used as a blocking agent and intravenously injected 5 min before the radiotracer injection.
(§2) All animal studies were performed at the VA Biomolecular Imaging Center (VA BIC) at the Harry S. Truman Memorial Veterans’ Hospital (Columbia, MO). Six-week-old ApoE KO male mice and C57BL/6 control male mice were purchased from Jackson Laboratory. All mice were housed in the controlled vivarium during the studies. All ApoE KO mice were fed with high-fat chow that contained 42% fat, 34% of that contained unsaturated fat (TD.88137, Envigo, Indianapolis, IN), one week after the arrival and continued the feeding until the end of the study. The first PET/CT scans were performed 12 weeks after initiating the high-fat diet, and the second PET/CT scans that used 1·HCl as a blocking agent were performed at least one week after the first PET/CT scans. Meanwhile, C57BL/6 control mice were fed with normal chow over the same schedule to match with ApoE KO mice.
(§3) Maximum intensity micro-PET images were obtained on a Siemens INVEON small-animal PET/CT scanner (Siemens Medical Solutions USA, Inc., Malvern, PA). […] The micro-PET data was analyzed using Siemens Inveon Research Workplace, General Analysis software. […]

CXCR3 [2] = biological target: T1, CXCR3; test: PET/CT imaging, baseline and self-blocking, in C57BL/6 control mice on normal diet; format: in vivo
Source text: as §1, §2, §3

[3] = 1·HCl 5 mg/kg i.v. 5 min before tracer
[4] = blocking study with 1·HCl 5 mg/kg i.v., stated for both groups

CC[C@H]1CN(c2ncc(-c3nnco3)cc2Cl)CCN1C1CCN(Cc2ccc(Cl)cc2[18F])CC1 [[^18F]1]
blocking effect in BAT (from AUC of TACs) (CXCR3 [1]; [3]): 23.4% | blocking effect in atherosclerotic abdominal aorta (from AUC of TACs) (CXCR3 [1]; [3]): 16.9% | standard uptake value (SUV), BAT region (CXCR3 [1]; [4]): 1.2–1.5 | blocking effect in BAT (from AUC of TACs) (CXCR3 [2]; [3]): 45.9% | blocking effect in abdominal aorta (from AUC of TACs) (CXCR3 [2]; [3]): 4.7% | standard uptake value (SUV), BAT region (CXCR3 [2]; [4]): 1.2–1.5

From PMC10338423, “Synthesis and preclinical evaluation of a novel fluorine-18 labeled small-molecule PET radiotracer for imaging of CXCR3 receptor in mouse models of atherosclerosis” (EJNMMI Research, 2023)
